According to PubChem BioAssay AID2060886 (Molecular Pharmacology Branch, DTP, NCI, 2025):
Values belong to the compound of their own block, whether it stands above or below them.

Test system: 653999-131-R-J2-PDC complex spheroids, growth inhibition
Test: Anticancer human tumor 653999-131-R-J2-PDC patient-derived lung adenocarcinoma cell line growth inhibition [RAS]
Conditions: for IC50: curve of first compound; for viability, T/C: stronger effect = lower value
Procedure, shortened: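 Agents were tested in combination matrices in half-log decrements from a top concentration at or near clinical Cmax (10 microM if undetermined). Targets were multi-cell spheroids of tumour lines plus HUVEC and MSC stromal cells.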

[1] = second compound 0.000949 µM, first compound 0.0316 µM
[2] = second compound 0.000949 µM, first compound 0.1 µM
[3] = second compound 0.000949 µM, first compound 0.316 µM
[4] = second compound 0.000949 µM, first compound 1 µM
[5] = second compound 0.000949 µM, first compound 3.16 µM
[6] = second compound 0.000949 µM, first compound 10 µM
[7] = second compound 0.003 µM, first compound 0.0316 µM
[8] = second compound 0.003 µM, first compound 0.1 µM
[9] = second compound 0.003 µM, first compound 0.316 µM
[10] = second compound 0.003 µM, first compound 1 µM
[11] = second compound 0.003 µM, first compound 3.16 µM
[12] = second compound 0.003 µM, first compound 10 µM
[13] = second compound 0.00949 µM, first compound 0.0316 µM
[14] = second compound 0.00949 µM, first compound 0.1 µM
[15] = second compound 0.00949 µM, first compound 0.316 µM
[16] = second compound 0.00949 µM, first compound 1 µM
[17] = second compound 0.00949 µM, first compound 3.16 µM
[18] = second compound 0.00949 µM, first compound 10 µM
[19] = second compound 0.03 µM, first compound 0.0316 µM
[20] = second compound 0.03 µM, first compound 0.1 µM
[21] = second compound 0.03 µM, first compound 0.316 µM
[22] = second compound 0.03 µM, first compound 1 µM
[23] = second compound 0.03 µM, first compound 3.16 µM
[24] = second compound 0.03 µM, first compound 10 µM
[25] = second compound 0.0949 µM, first compound 0.0316 µM
[26] = second compound 0.0949 µM, first compound 0.1 µM
[27] = second compound 0.0949 µM, first compound 0.316 µM
[28] = second compound 0.0949 µM, first compound 1 µM
[29] = second compound 0.0949 µM, first compound 3.16 µM
[30] = second compound 0.0949 µM, first compound 10 µM
[31] = second compound 0.3 µM, first compound 0.0316 µM
[32] = second compound 0.3 µM, first compound 0.1 µM
[33] = second compound 0.3 µM, first compound 0.316 µM
[34] = second compound 0.3 µM, first compound 1 µM
[35] = second compound 0.3 µM, first compound 3.16 µM
[36] = second compound 0.3 µM, first compound 10 µM
[37] = second compound 0.000949 µM, first compound 0.00316 µM
[38] = second compound 0.000949 µM, first compound 0.01 µM
[39] = second compound 0.003 µM, first compound 0.00316 µM
[40] = second compound 0.003 µM, first compound 0.01 µM
[41] = second compound 0.00949 µM, first compound 0.00316 µM
[42] = second compound 0.00949 µM, first compound 0.01 µM
[43] = second compound 0.03 µM, first compound 0.00316 µM
[44] = second compound 0.03 µM, first compound 0.01 µM
[45] = second compound 0.0949 µM, first compound 0.00316 µM
[46] = second compound 0.0949 µM, first compound 0.01 µM
[47] = second compound 0.3 µM, first compound 0.00316 µM
[48] = second compound 0.3 µM, first compound 0.01 µM
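Further: spheroids exposed to the agents for seven days before the readout.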

IC50 (second compound 0.000949 µM): 953 nM
IC50 (second compound 0.003 µM): 1240 nM
IC50 (second compound 0.00949 µM): 1530 nM
IC50 (second compound 0.03 µM): 1530 nM
IC50 (second compound 0.0949 µM): 1160 nM
IC50 (second compound 0.3 µM): 996 nM
SMILES: CC(C)NCC(C(=O)N1CCN(c2ncnc3c2C(C)CC3O)CC1)c1ccc(Cl)cc1 (stereo not drawn) + CCn1c(-c2cccnc2C(C)OC)c2c3cc(ccc31)N1CCOC(CC(NC(=O)C(C(C)C)N(C)C(=O)C3(F)CCN(C(=O)C#CC(C)(C)N(C)C)CC3)C(=O)N3CCCC(N3)C(=O)OCC(C)(C)C2)C1
viability, T/C [1]: 91%
viability, T/C [2]: 110%
viability, T/C [3]: 72.1%
viability, T/C [4]: 53.1%
viability, T/C [5]: 41.6%
viability, T/C [6]: 34.6%
viability, T/C [7]: 86.8%
viability, T/C [8]: 99.8%
viability, T/C [9]: 70.2%
viability, T/C [10]: 54.3%
viability, T/C [11]: 40.6%
viability, T/C [12]: 32.9%
viability, T/C [13]: 118%
viability, T/C [14]: 94.4%
viability, T/C [15]: 83.6%
viability, T/C [16]: 48.2%
viability, T/C [17]: 44.7%
viability, T/C [18]: 30.6%
viability, T/C [19]: 101%
viability, T/C [20]: 85.1%
viability, T/C [21]: 76.4%
viability, T/C [22]: 53.5%
viability, T/C [23]: 40.8%
viability, T/C [24]: 31.2%
viability, T/C [25]: 109%
viability, T/C [26]: 81.7%
viability, T/C [27]: 73.3%
viability, T/C [28]: 47.3%
viability, T/C [29]: 39.9%
viability, T/C [30]: 36.5%
viability, T/C [31]: 92%
viability, T/C [32]: 85.7%
viability, T/C [33]: 64.8%
viability, T/C [34]: 49.9%
viability, T/C [35]: 42.5%
viability, T/C [36]: 34.2%

IC50 (second compound 0.000949 µM): 21.8 nM
IC50 (second compound 0.003 µM): 20.1 nM
IC50 (second compound 0.00949 µM): 20.1 nM
IC50 (second compound 0.03 µM): 22.1 nM
IC50 (second compound 0.0949 µM): 24.6 nM
IC50 (second compound 0.3 µM): 17.7 nM
SMILES: CC(C)n1nc(-c2ccc3oc(N)nc3c2)c2c(N)ncnc21 + CCn1c(-c2cccnc2C(C)OC)c2c3cc(ccc31)N1CCOC(CC(NC(=O)C(C(C)C)N(C)C(=O)C3(F)CCN(C(=O)C#CC(C)(C)N(C)C)CC3)C(=O)N3CCCC(N3)C(=O)OCC(C)(C)C2)C1
viability, T/C (second compound 0.000949 µM, first compound 0.000316 µM): 85.9%
viability, T/C (second compound 0.000949 µM, first compound 0.001 µM): 95.4%
viability, T/C [37]: 82.9%
viability, T/C [38]: 66%
viability, T/C [1]: 42.9%
viability, T/C [2]: 28.4%
viability, T/C (second compound 0.003 µM, first compound 0.000316 µM): 95.8%
viability, T/C (second compound 0.003 µM, first compound 0.001 µM): 104%
viability, T/C [39]: 87.3%
viability, T/C [40]: 62.7%
viability, T/C [7]: 42.9%
viability, T/C [8]: 34%
viability, T/C (second compound 0.00949 µM, first compound 0.000316 µM): 107%
viability, T/C (second compound 0.00949 µM, first compound 0.001 µM): 98.8%
viability, T/C [41]: 94.5%
viability, T/C [42]: 63.9%
viability, T/C [13]: 41.1%
viability, T/C [14]: 32.9%
viability, T/C (second compound 0.03 µM, first compound 0.000316 µM): 100%
viability, T/C (second compound 0.03 µM, first compound 0.001 µM): 93.8%
viability, T/C [43]: 76.9%
viability, T/C [44]: 59.3%
viability, T/C [19]: 47.4%
viability, T/C [20]: 29.1%
viability, T/C (second compound 0.0949 µM, first compound 0.000316 µM): 97.7%
viability, T/C (second compound 0.0949 µM, first compound 0.001 µM): 95.8%
viability, T/C [45]: 79.4%
viability, T/C [46]: 68.1%
viability, T/C [25]: 44%
viability, T/C [26]: 31.8%
viability, T/C (second compound 0.3 µM, first compound 0.000316 µM): 92.4%
viability, T/C (second compound 0.3 µM, first compound 0.001 µM): 93.8%
viability, T/C [47]: 81.7%
viability, T/C [48]: 54.6%
viability, T/C [31]: 45.4%
viability, T/C [32]: 44.9%

IC50 (second compound 0.000949 µM): 772 nM
IC50 (second compound 0.003 µM): 502 nM
IC50 (second compound 0.00949 µM): 544 nM
IC50 (second compound 0.03 µM): 473 nM
IC50 (second compound 0.0949 µM): 510 nM
IC50 (second compound 0.3 µM): 442 nM
SMILES: CC(Nc1ccc2c(c1)OCCn1cc(N3C(=O)OCC3C(F)F)nc1-2)C(N)=O (stereo not drawn) + CCn1c(-c2cccnc2C(C)OC)c2c3cc(ccc31)N1CCOC(CC(NC(=O)C(C(C)C)N(C)C(=O)C3(F)CCN(C(=O)C#CC(C)(C)N(C)C)CC3)C(=O)N3CCCC(N3)C(=O)OCC(C)(C)C2)C1
viability, T/C [1]: 85.2%
viability, T/C [2]: 79.2%
viability, T/C [3]: 66.4%
viability, T/C [4]: 44.6%
viability, T/C [5]: 29.4%
viability, T/C [6]: 20.1%
viability, T/C [7]: 88.3%
viability, T/C [8]: 70.8%
viability, T/C [9]: 59.3%
viability, T/C [10]: 38%
viability, T/C [11]: 30.1%
viability, T/C [12]: 20.3%
viability, T/C [13]: 99.2%
viability, T/C [14]: 71%
viability, T/C [15]: 60.3%
viability, T/C [16]: 43.7%
viability, T/C [17]: 26.8%
viability, T/C [18]: 21.9%
viability, T/C [19]: 83.3%
viability, T/C [20]: 69.6%
viability, T/C [21]: 56.8%
viability, T/C [22]: 37%
viability, T/C [23]: 33.2%
viability, T/C [24]: 20.5%
viability, T/C [25]: 85.8%
viability, T/C [26]: 73.7%
viability, T/C [27]: 57.2%
viability, T/C [28]: 40.1%
viability, T/C [29]: 29.3%
viability, T/C [30]: 23.9%
viability, T/C [31]: 92%
viability, T/C [32]: 67.5%
viability, T/C [33]: 53.5%
viability, T/C [34]: 41.2%
viability, T/C [35]: 29.4%
viability, T/C [36]: 18.3%

IC50 (second compound 0.000949 µM): 110 nM
IC50 (second compound 0.003 µM): 122 nM
IC50 (second compound 0.00949 µM): 76.6 nM
IC50 (second compound 0.03 µM): 81.4 nM
IC50 (second compound 0.0949 µM): 120 nM
IC50 (second compound 0.3 µM): 82 nM
SMILES: O=C(c1ccc(F)c(F)c1Nc1ccc(I)cc1F)N1CC(O)([C@@H]2CCCCN2)C1 + CCn1c(-c2cccnc2C(C)OC)c2c3cc(ccc31)N1CCOC(CC(NC(=O)C(C(C)C)N(C)C(=O)C3(F)CCN(C(=O)C#CC(C)(C)N(C)C)CC3)C(=O)N3CCCC(N3)C(=O)OCC(C)(C)C2)C1
viability, T/C [37]: 83.6%
viability, T/C [38]: 74.5%
viability, T/C [1]: 68.5%
viability, T/C [2]: 55.8%
viability, T/C [3]: 20.6%
viability, T/C [4]: 12%
viability, T/C [39]: 82.5%
viability, T/C [40]: 60%
viability, T/C [7]: 71.3%
viability, T/C [8]: 50.8%
viability, T/C [9]: 38.4%
viability, T/C [10]: 15.4%
viability, T/C [41]: 92.9%
viability, T/C [42]: 65.2%
viability, T/C [13]: 63.7%
viability, T/C [14]: 52.3%
viability, T/C [15]: 30.1%
viability, T/C [16]: 13.2%
viability, T/C [43]: 77.4%
viability, T/C [44]: 57.8%
viability, T/C [19]: 64.5%
viability, T/C [20]: 49.6%
viability, T/C [21]: 26.2%
viability, T/C [22]: 14.2%
viability, T/C [45]: 62%
viability, T/C [46]: 68.1%
viability, T/C [25]: 66.5%
viability, T/C [26]: 51.7%
viability, T/C [27]: 31.4%
viability, T/C [28]: 13.5%
viability, T/C [47]: 65.3%
viability, T/C [48]: 70.2%
viability, T/C [31]: 73.1%
viability, T/C [32]: 43.4%
viability, T/C [33]: 23.5%
viability, T/C [34]: 10.4%
